Test system: Human coronavirus 229E
Test: Antiviral activity against HCoV-229E harboring GFP infected in human Huh-7 cells treated 1 hr prior to viral infection by fluorometric analysis
Format: functional, organism-based

`CCN(CC)CCCC(C)Nc1ccnc2cc(Cl)ccc12` (stereo unspecified) [CHLOROQUINE] showed an EC50 of 3.3 µM.
